# Source: US20240335397A1, “USE OF POLYAMINES IN THE TREATMENT OF BRAIN TUMOURS” (priority 2021, published 2024)
# Where two headings read alike, the source gives them in different places.
# Tests used:
# U87 cell line spheroid = settings: for Invasion from spheroid: 2 wt % HA gel pre-mixed with polyamine; for Binding to HA (rank among polyamines): inferred from spheroid invasion in 2 wt % HA gel
# Protocol: FIG. 3. Neutralisation of polyamine toxicity by matrix polyanions assayed in vitro. U87 cells were suspended at 5K cells per spheroid and then grown in medium in non-adherent plates for 7-10 days until seeded into 2% HA gel pre-mixed with a polyamine for 24 hours. (A) Representative microscopic images (multiplication 5×, field view: 1800 μm×2500 μm) were taken on day 2 after spheroid was seeded into the gel. (B) Area of invasion was determined by measurement of invasion distance from the centre of four independent spheroids in four directions on days 1, 2 and 3.
# Strength of polyamine binding to polyanions (hyaluronic acid, GAGs) in (normal) brain ECM is a decisive factor which targets polyamine toxicity towards cancer cells rather than brain cells. When binding is strong, a polyamine will be neutralised before reaching cellular membrane which is surrounded by extracellular polyanions. When binding is weak, sufficient concentration of polyamine may kill the cell even though the cell is surrounded by polyanions. To test the binding strength of different polyamines, we developed a 3D neutralisation assay: the invasion from a neuroepithelial cancer spheroid (U87 cell line) was monitored in vitro in 2 wt % HA gel pre-mixed with different polyamines. Invasion from spheroid was indicative of cell survival and thus predictive of a strong binding of the polyamine to brain polyanions in vivo. A weak in vitro binding of a polyamine to HA manifested itself by the absence of invasion, i.e. cell poisoning, and thus was predictive of weak binding of the polyamine to brain polyanions in vivo.
# In detail, polyamines were mixed with 2 wt % hyaluronic acid mixed with full MEM medium containing 10% foetal bovine serum to support cell growth to achieve the desired polyamine concentration and the resulting hyaluronic acid/polyamine gel plated in 24-well plates. One 3D tumour spheroid of U87 GBM cells was placed in each well. The invasion into the surrounding hyaluronic acid-rich matrix was imaged over several days and the invasion area measured by determining the maximum invasion distance in four orthogonal directions from the centre of the tumour spheroid and compared to controls with no polyamine in the hyaluronic acid matrix.
# U87 cells [1] = assay: 2D-scanning cell toxicity assay: polyamine injected into well of U87 cells under 3 wt % HA gel; type: cell-based; settings: for Level of protection by HA of distant cells (rank): FIG. 4
# Protocol: FIG. 4. […] Adherent cells were grown in 24-well plates in 3% HA gel until achieved 40-50% confluency. Non-toxic fluorescent dye—CellToxGreen (Promega)—was premixed into the gel. 30 μL of polyamine ( 1/20 of total gel volume) was injected at 6 o'clock position of the well. CellToxGreen penetrated only into the dead cells with compromised membranes, bound to their DNA and emitted green fluorescence, i.e. increase in fluorescence intensity quantified cell death. Cells were monitored for 7 days using well scanning functions of a fluorescent reader FLUOstar (BMG Labtech, Germany). (A) Drawing of a well to show the point of injection of polyamine and the fate of cells near the injection point; and a representative image of a well assembled from 44 scanned patches. The higher the fluorescence intensity of a patch, the higher was the number of dead cells. (B) Ratio of dead cell fluorescence in two opposite areas of the well. Ratio=[fluorescence intensity in 22 patches adjacent to the injection point]/[fluorescence intensity in 22 patches opposing the injection point]. […] Multiplication 5×, field view: 2500 μm×1800 μm.
# When brain cancers develop, it is within the polyanion (hyaluronic acid and GAG)-enriched environment of normal brain matrix, which in the tumour vicinity is degraded, diluted by oedema while the tumour itself synthesizes new specialized matrix with very different composition to normal brain (see Example 2). […] First, a cancer cell line of the neuroepithelial origin (U87) was plated, given a day for the cells to adhere to the well bottom and then covered by HA gel as a model of the polyanion-rich, normal brain ECM. Then, a polyamine was injected at the 6 o'clock position of each well (see FIG. 4). In the vicinity of the injection point, cells were expected to die, because the initial polyamine concentration was maximal in this region and the HA gel in this region was diluted by the carrier solvent (PBS). However, cells distant from the injection point were still surrounded by undiluted HA and the HA gel was expected to sequester the polyamine as it diffused through the HA gel, providing the polyamine binds strongly to HA and there is sufficient HA (i.e. the HA is not diluted) to bind sufficient polyamine to reduce the effective polyamine concentration to below the EC50 value. Thus, cells more distant from the injection point were expected to be protected from the polyamine, for as long as the polyamine remained strongly bound to the HA gel. Cell death was imaged over the well by scanning the well bottom for the fluorescence of a mortality dye, which binds DNA of cells with impaired membrane integrity.
# In detail, U87 glioblastoma cells were grown in 24-well plates at with full MEM medium containing 10% foetal bovine serum until a layer of confluent cells covered the bottom of each well (FIG. 4). This liquid media was then removed leaving a layer of cells adhered to the bottom of each well. […] This hyaluronic acid plus protein gel represents a model of human brain extracellular matrix. CEIIToxGreen is a non-toxic molecule that can only enter dead cells, where it binds to DNA and emits green fluorescence. CEIIToxGreen thus allowed us to follow cell death over time in this assay by monitoring green fluorescence.
# 30 μL of different concentrations of polyamine was injected at the 6 o'clock position of each well and mapped the dead cell content in each well as a function of time. Specifically, each well was mapped as 44 congruent, contiguous tiles (FIG. 4A) and cell death in a tile was assayed as the net green fluorescence intensity from the tile.
# U87 cells [2] = assay: Acute toxicity of polyamines to U87 cells in liquid medium (CellToxGreen fluorescence, bright field images); type: cell-based; settings: for EC50: Homo sapiens, U-87 MG, 1 h, U87 cells, liquid medium, 60 minutes incubation, CellToxGreen normalised to lysis buffer control, read-out: EC50 (cell death)
# Protocol: FIG. 1. Comparative acute toxicity of selected linear polyamines towards cancer cell line of neuroepithelial origin. U87 cells were plated in 24-well plates and grown for about 3 days in liquid medium up to 50% confluency. Cell death was assayed via CellToxGreen (Promega) fluorescence after 60 minutes incubation with a polyamine and normalised to control in a lysis buffer.
# We tested polyamine toxicity to U87 cells, an invasive cancer cell line of neuroepithelial origin, when they were plated and incubated in full MEM medium, containing 10% foetal bovine serum.
# NCr nu/nu mouse brain = test system: NCr nu/nu mouse brain
# Protocol: FIG. 5. Weight gain and survival of NCr nu/nu mice after a single polyamine injection into the brain. 6 animals per group were randomised on day 0, and on day 1 injected with 10 μL of 4 and 10 mM of the following three polyamines: putrescine, spermidine and cadaverine. Animal weight, survival and behaviour was monitored for 14 days.
# To test polyamine safety in vivo and assess their effect on brain function, a single injection of 10 μL into NCr nu/nu mouse brain was selected as a model. A 10 μL volume in a mouse brain correlates well with a 3 cm diameter tumour in human brain, which is a typical size, for example, for initial glioblastoma diagnosis. The injected volume is thus similar to what might be needed to be injected into a human brain tumour. Three polyamines were selected for testing: putrescine, spermidine and cadaverine. Polyamines were tested in two concentrations: the lowest concentration, 4 mM, was expected to be safe based on in vitro assays and the highest concentration, 10 mM, to show some toxicity for cadaverine at least.
# recurrent GBM = settings: in combination with Lomustine, patients with recurrent GBM; cited from earlier work
compound,measurement,setting,value
"NCCCCCCNCCCCCCN [BHMTA, bis(hexamethylene)triamine]",Concentrations showing cytotoxic effects in hyaluronic acid-rich matrix,U87 cell line spheroid,> 4000 µM
NCCCCNCCCN [spermidine],Time cells on opposite side of well remained viable,"U87 cells [1]; 4-12 mM, 3 wt % HA gel",at least 7 days
same,Time in which cells close to injection site die,"U87 cells [1]; 4-12 mM, 3 wt % HA gel",48 to 72 h
same,Toxicity for U87 cells close to injection site,"U87 cells [1]; 4-12 mM, 3 wt % HA gel",highly toxic
same,Protection of cells in HA gel distant from injection,U87 cells [1]; both 4 mM and 10 mM,protected
same,Cytotoxicity in hyaluronic acid-rich matrix compared with media,U87 cell line spheroid; 2 wt % HA gel,almost completely abrogated
same,Invasion from spheroid,U87 cell line spheroid,invasion from spheroid was not affected
same,Toxicity in 2 wt % hyaluronic acid,U87 cell line spheroid; 4-12 mM,non-toxic
same,Binding to HA (rank among polyamines),U87 cell line spheroid,strongest binder
same,EC50,U87 cells [2],13 to 14 mM
NCCCCCN [cadaverine],Protection of cells in HA gel distant from injection,U87 cells [1]; 10 mM,not protected
same,Level of protection by HA of distant cells (rank),U87 cells [1]; 3 wt % HA gel,lowest
same,Concentrations showing cytotoxic effects in hyaluronic acid-rich matrix,U87 cell line spheroid; human,> 4000 µM
same,EC50,U87 cells [2],6 mM
same,Animals died after 30 min of injection,"NCr nu/nu mouse brain; 10 mM, 10 μL into brain",3 out of 6
same,Further animals died within 24 hours,"NCr nu/nu mouse brain; 10 mM, 10 μL into brain",2 animals
same,Survival,"NCr nu/nu mouse brain; 10 mM, 10 μL into brain",Only one animal survived
same,Weight loss of surviving animal,"NCr nu/nu mouse brain; 10 mM, day 3, then fully recovered",18%
Bevacizumab: monoclonal antibody against vascular endothelial growth factor (VEGF),Increase in median progression-free survival,recurrent GBM,0.23 months
same,Increase in overall survival,recurrent GBM,1.4 months
NCCCNCCCCNCCCN [spermine],Reduction of toxicity in hyaluronic acid-rich environment compared to same cell type in medium,"U87 cells [1]; 10 mM, 3 wt % HA",3 fold less toxic
same,Effect on cells a few millimetres away from injection point,"U87 cells [1]; 4-6 mM, 3 wt % HA gel",benign
same,Toxicity to cells close to injection point,"U87 cells [1]; 4-6 mM, 3 wt % HA gel",toxic
same,Invasion from spheroid,U87 cell line spheroid,invasion was strongly suppressed
same,Concentrations showing cytotoxic effects in hyaluronic acid-rich matrix,U87 cell line spheroid; human,> 4000 µM
same,Binding to HA (rank among polyamines),U87 cell line spheroid,weakest binder
same,Mode of cell death in bright field images,"U87 cells [2]; U87 cell suspensions, 10 mM and 20 mM, within 60 minutes",severe membrane disruption resulting in cell fragmentation
NCCCCN [putrescine],Level of protection by HA of distant cells (rank),U87 cells [1]; 3 wt % HA gel,highest
same,Protection of cells in HA gel distant from injection,U87 cells [1]; both 4 mM and 10 mM,protected
same,Cytotoxicity in hyaluronic acid-rich matrix compared with media,U87 cell line spheroid,almost completely abrogated
same,Acute toxicity in vivo,"NCr nu/nu mouse brain; either concentration (4 mM, 10 mM), 10 μL into brain",Neither putrescine nor spermidine demonstrated acute toxicity
